Source: patent US8349893B2, “4-trimethylammonio-butyrates as CPT2 inhibitors” (Hoffmann-La Roche Inc., priority 2008, dated 2013)

Assays:
hCPT2 = molecular target: T1, hCPT2 (Homo sapiens, UniProt P23786); assay: hCPT2 inhibition (spectrophotometric DTNB CPT activity assay); format: biochemical; settings: human CPT2 expressed in P. pastoris, cell extract; carnitine 500 μM, palmitoyl-CoA 80 μM, DTNB 300 μM
T1 construct: made in house; host or cells: Pichia pastoris strain X-33 (pGAPZB/pGAPZA), crude cell-free extract
T1 sequence (P23786 26-658): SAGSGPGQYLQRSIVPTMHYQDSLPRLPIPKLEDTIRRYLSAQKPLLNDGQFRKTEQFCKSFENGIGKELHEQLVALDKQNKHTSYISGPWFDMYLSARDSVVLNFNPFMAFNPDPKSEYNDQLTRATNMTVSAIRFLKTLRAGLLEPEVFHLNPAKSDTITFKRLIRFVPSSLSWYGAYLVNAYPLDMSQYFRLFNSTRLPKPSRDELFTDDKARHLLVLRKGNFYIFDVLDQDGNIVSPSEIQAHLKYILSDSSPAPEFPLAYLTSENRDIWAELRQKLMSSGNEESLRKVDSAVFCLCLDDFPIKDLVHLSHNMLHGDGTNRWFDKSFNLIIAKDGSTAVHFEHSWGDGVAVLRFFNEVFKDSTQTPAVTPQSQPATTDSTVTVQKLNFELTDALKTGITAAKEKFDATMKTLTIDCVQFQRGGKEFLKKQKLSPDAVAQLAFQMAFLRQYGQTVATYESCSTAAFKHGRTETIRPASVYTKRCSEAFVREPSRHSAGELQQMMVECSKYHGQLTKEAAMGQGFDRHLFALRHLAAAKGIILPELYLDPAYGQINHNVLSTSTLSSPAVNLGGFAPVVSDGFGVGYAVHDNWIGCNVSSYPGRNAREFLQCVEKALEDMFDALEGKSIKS
Procedure: (§1) The following tests were carried out in order to determine the activity of the compounds of the present invention. Background information on the performed assays can be found in: Jackson et al., 1999, Biochem. J. 341, 483-489 and Jackson et al., 2000, J. Biol. Chem. 275, 19560-19566.
(§2) Human and rat CPT2- and liver CPT1 cDNAs, and human muscle CPT1 cDNA were subcloned in pGAPZB or pGAPZA, respectively. These plasmids were used to transform P. pastoris strain X-33 via electroporation after the preparation of electrocompetent cells. High copy number clones were selected where necessary using 0.5 or 1 mg/ml Zeocin. Cultures for activity measurements were induced for 16 h in YPD medium (1% yeast extract, 2% peptone, 2% glucose). Crude cell extracts were prepared by disrupting the cells with glass beads or French Press, depending on fermenter sizes. After centrifugation, the cell-free extracts were resuspended in cell breaking buffer (50 mM Tris, pH7.4, 100 mM KCl, 1 mM EDTA) in the presence of a protease inhibitor cocktail, before aliquoting and freezing at −20° C.
(§3) CPT activity was measured using a spectrophotometric assay using 5,5′-dithio-bis-(2-nitrobenzoic acid) (DTNB) also called Ellman's reagent. The HS-CoA released on the formation of acylcarnitine from carnitine (500 μM) and palmitoyl-CoA (80 μM) reduced DTNB (300 μM) forming 5-mercapto-2-nitrobenzoic acid which absorbed at 410 nm with a molar extinction coefficient of 13600 M^−1 cm^−1. The assay buffer contained 120 mM KCl, 25 mM Tris, pH 7.4, 1 mM EDTA. This assay was used for the identification of CPT inhibitors, particularly/preferentially CPT2-selective inhibitors, versus the liver and muscle CPT1 isoforms.

hL-CPT1 = molecular target: T2, hL-CPT1 (Homo sapiens, UniProt P50416); assay: hL-CPT1 inhibition (spectrophotometric DTNB CPT activity assay); format: biochemical; settings: human liver CPT1 expressed in P. pastoris, cell extract; carnitine 500 μM, palmitoyl-CoA 80 μM, DTNB 300 μM
T2 construct: made in house; host or cells: Pichia pastoris strain X-33 (pGAPZB/pGAPZA), crude cell-free extract
T2 sequence (P50416 1-773): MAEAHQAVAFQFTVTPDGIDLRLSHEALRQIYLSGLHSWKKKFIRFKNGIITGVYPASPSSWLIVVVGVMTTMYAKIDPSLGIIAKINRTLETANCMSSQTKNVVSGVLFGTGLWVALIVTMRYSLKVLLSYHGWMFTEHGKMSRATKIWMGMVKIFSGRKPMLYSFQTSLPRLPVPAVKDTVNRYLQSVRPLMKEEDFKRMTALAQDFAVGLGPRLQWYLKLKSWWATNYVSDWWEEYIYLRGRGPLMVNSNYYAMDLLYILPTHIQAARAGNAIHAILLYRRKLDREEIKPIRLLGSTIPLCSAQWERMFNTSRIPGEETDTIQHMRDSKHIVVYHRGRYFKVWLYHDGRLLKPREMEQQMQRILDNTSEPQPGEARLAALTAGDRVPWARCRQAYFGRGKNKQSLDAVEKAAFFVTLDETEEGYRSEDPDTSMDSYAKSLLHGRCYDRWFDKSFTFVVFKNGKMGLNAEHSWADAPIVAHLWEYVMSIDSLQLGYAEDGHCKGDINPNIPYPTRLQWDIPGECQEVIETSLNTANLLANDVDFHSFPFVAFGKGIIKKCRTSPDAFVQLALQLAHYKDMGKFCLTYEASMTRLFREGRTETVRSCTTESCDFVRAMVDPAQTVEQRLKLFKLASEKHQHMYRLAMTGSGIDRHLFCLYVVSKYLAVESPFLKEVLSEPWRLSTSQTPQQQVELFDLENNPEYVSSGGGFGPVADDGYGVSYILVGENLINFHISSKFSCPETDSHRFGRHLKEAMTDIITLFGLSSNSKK
Procedure: as §1, §2, §3

| SMILES | IC50 (hCPT2) [nM] | IC50 (hL-CPT1) [nM] |
| --- | --- | --- |
| C[N+](C)(C)C[C@@H](CC(=O)[O-])NC(=O)CCCCCCCOCc1ccc(F)c(F)c1 [Example 1, (R)-3-[8-(3,4-Difluoro-benzyloxy)-octanoylamino]-4-trimethylammonio-butyrate] | 73.2 | 2190 |
| C[N+](C)(C)C[C@@H](CC(=O)[O-])NC(=O)CCCCCCCOCc1cc(F)ccc1F [Example 2, (R)-3-[8-(2,5-Difluoro-benzyloxy)-octanoylamino]-4-trimethylammonio-butyrate] | 125 | 5630 |
| C[N+](C)(C)C[C@@H](CC(=O)[O-])NC(=O)CCCCCCCOCc1ccc(F)cc1F [Example 3, (R)-3-[8-(2,4-Difluoro-benzyloxy)-octanoylamino]-4-trimethylammonio-butyrate] | 298 | 1120 |
| C[N+](C)(C)C[C@@H](CC(=O)[O-])NC(=O)CCCCCCCOCc1ccc(C(F)(F)F)cc1 [Example 6, (R)-3-[8-(4-Trifluoromethyl-benzyloxy)-octanoylamino]-4-trimethylammonio-butyrate] | 32.1 | 4340 |
| C[N+](C)(C)C[C@@H](CC(=O)[O-])NC(=O)CCCCCCCOCc1ccc(C(F)(F)F)c(F)c1 [Example 7, (R)-3-[8-(3-Fluoro-4-trifluoromethyl-benzyloxy)-octanoylamino]-4-trimethylammonio-butyrate] | 32.3 | 2250 |
| COc1ccc(COCCCCCCCC(=O)N[C@H](CC(=O)[O-])C[N+](C)(C)C)cc1 [Example 8, (R)-3-[8-(4-Methoxy-benzyloxy)-octanoylamino]-4-trimethylammonio-butyrate] | 53.7 | 7190 |
| C[N+](C)(C)C[C@@H](CC(=O)[O-])NC(=O)CCCCCCCOCc1ccc(-c2ccccc2)cc1 [Example 9, (R)-3-[8-(Biphenyl-4-ylmethoxy)-octanoylamino]-4-trimethylammonio-butyrate] | 1.2 | 1090 |
| C[N+](C)(C)C[C@@H](CC(=O)[O-])NC(=O)CCCCCCCOCc1cccc2ccccc12 [Example 12, (R)-3-[8-(Naphthalen-1-ylmethoxy)-octanoylamino]-4-trimethylammonio-butyrate] | 41 | > 10000 |
| C[N+](C)(C)C[C@@H](CC(=O)[O-])NC(=O)CCCCCCCOCc1cccc(F)c1 [Example 15, (R)-3-[8-(3-Fluoro-benzyloxy)-octanoylamino]-4-trimethylammonio-butyrate] | 29.4 | 3250 |
| C[N+](C)(C)C[C@@H](CC(=O)[O-])NC(=O)CCCCCCCCCc1ccccc1 [Example 18, (R)-3-(10-Phenyl-decanoylamino)-4-trimethylammonio-butyrate] | 14.5 | 621 |
| C[N+](C)(C)C[C@@H](CC(=O)[O-])NC(=O)CCCCCCCCCc1cccc2ccccc12 [Example 24, (R)-3-(10-Naphthalen-1-yl-decanoylamino)-4-trimethylammonio-butyrate] | 21.2 | 3980 |
| C[N+](C)(C)C[C@@H](CC(=O)[O-])NC(=O)CCCCCCCCCc1ccc(C(F)(F)F)cc1 [Example 25, (R)-4-Trimethylammonio-3-[10-(4-trifluoromethyl-phenyl)-decanoylamino]-butyrate] | 125 | 3070 |
| C[N+](C)(C)C[C@@H](CC(=O)[O-])NC(=O)CCCCCCCCCc1cccc(F)c1 [Example 26, (R)-3-[10-(3-Fluoro-phenyl)-decanoylamino]-4-trimethylammonio-butyrate] | 8.1 | 1820 |
| C[N+](C)(C)C[C@@H](CC(=O)[O-])NC(=O)CCCCCCCCCc1ccsc1 [Example 28, (R)-3-(10-Thiophen-3-yl-decanoylamino)-4-trimethylammonio-butyrate] | 20.2 | 854 |
| C[N+](C)(C)C[C@@H](CC(=O)[O-])NC(=O)CCCCCCCc1ccccc1 [Example 31, (R)-3-(8-phenyl-octanoylamino)-4-trimethylammonio-butyrate] | 538 | 1380 |
| C[N+](C)(C)C[C@@H](CC(=O)[O-])NC(=O)CCCCCCCCc1ccccc1 [Example 32, (R)-3-(9-Phenyl-nonanoylamino)-4-trimethylammonio-butyrate] | 246 | 2370 |
| C[N+](C)(C)C[C@@H](CC(=O)[O-])NC(=O)CCCCCCCCCCc1ccccc1 [Example 33, (R)-3-(11-Phenyl-undecanoylamino)-4-trimethylammonio-butyrate] | 486 | 6080 |
| C[N+](C)(C)C[C@@H](CC(=O)[O-])NC(=O)CCCCCCCCCCCc1ccccc1 [Example 34, (R)-3-(12-Phenyl-dodecanoylamino)-4-trimethylammonio-butyrate] | 16.6 | 427 |
